Active and inactive are the calls of the source. Rule as the data show it, for most assays here: actives have a measured EC50 and inactives only a lower limit.
Columns and labels:
[1] = target: Cytochrome P450 2D6 (Homo sapiens, UniProt P10635);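 also: CYP2D6 member of a cytochrome P450 panel assay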
[2] = target: T1, Cytochrome P450 1A2 (Homo sapiens, UniProt P05177);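 also: PubChem cytochrome P450 panel assay, CYP1A2 panel member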
T1 sequence (P05177 whole entry): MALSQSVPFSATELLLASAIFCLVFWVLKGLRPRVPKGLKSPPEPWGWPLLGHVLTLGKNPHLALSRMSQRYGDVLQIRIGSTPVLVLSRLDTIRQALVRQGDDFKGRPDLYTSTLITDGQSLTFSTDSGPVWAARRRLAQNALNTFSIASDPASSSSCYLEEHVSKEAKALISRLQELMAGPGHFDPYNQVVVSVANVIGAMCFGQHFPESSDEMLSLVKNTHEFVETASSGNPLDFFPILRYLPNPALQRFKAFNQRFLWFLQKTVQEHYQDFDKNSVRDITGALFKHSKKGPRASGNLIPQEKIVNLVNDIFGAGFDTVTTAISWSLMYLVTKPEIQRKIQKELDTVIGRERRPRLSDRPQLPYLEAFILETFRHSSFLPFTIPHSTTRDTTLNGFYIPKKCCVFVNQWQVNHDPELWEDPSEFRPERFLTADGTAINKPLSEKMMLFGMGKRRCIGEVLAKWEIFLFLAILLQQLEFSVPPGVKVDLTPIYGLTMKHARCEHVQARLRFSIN

[3] = target: Cytochrome P450 3A4 (Homo sapiens, UniProt P08684);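 also: CYP3A4 tested as one member of a cytochrome P450 panel screen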
[4] = target: T2, Corticotropin-releasing factor receptor 2/Corticotropin-releasing factor-binding protein (Homo sapiens, UniProt P24387+Q13324); experiment: activators of CRF receptor 2 with binding protein – uHTS hits, confirmation (AID 602473); assay type: functional; details: read-out: EC50_Mean
T2 sequence (Q13324 whole entry): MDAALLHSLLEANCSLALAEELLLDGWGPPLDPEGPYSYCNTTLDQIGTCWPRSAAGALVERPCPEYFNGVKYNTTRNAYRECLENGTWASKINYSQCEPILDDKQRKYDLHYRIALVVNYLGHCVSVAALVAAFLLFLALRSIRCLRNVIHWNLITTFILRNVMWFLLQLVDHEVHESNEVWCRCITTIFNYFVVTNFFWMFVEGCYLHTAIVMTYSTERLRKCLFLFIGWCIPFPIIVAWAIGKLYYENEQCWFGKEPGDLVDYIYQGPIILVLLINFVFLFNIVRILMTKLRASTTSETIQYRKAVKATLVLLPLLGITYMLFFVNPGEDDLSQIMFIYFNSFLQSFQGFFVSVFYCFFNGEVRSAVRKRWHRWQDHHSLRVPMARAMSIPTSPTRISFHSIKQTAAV
T2 sequence (P24387 whole entry): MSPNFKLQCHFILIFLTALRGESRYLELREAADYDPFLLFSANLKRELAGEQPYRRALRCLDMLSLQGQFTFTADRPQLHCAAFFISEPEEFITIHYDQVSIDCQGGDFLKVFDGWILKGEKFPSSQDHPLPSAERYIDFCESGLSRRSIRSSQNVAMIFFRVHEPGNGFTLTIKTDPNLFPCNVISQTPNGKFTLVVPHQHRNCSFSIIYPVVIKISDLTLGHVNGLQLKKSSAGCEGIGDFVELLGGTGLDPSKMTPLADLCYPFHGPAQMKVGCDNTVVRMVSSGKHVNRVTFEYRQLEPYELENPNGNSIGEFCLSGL

[5] = target: T2, Corticotropin-releasing factor receptor 2/Corticotropin-releasing factor-binding protein; experiment: Dose Response confirmation of uHTS hits for small molecule antagonists of the CRF-binding protein and CRF-R2 receptor complex.; assay type: functional; details: read-out: IC50_Mean
[6] = tested on: Streptococcus; experiment: GAS UMAA2166 growth inhibition – luminescence, BacTiterGlo, counter-screen for streptokinase expression inhibitor project, dose response (AID 1915); assay type: functional, organism-based;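 also: potency for reduction of bacterial viability or growth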
[7] = target: T3, Streptokinase A (Streptococcus pyogenes serotype M1, UniProt P10520); experiment: viability-normalized secreted streptokinase activity reduction – plasminogen activation absorbance, OD405, dose response (AID 1914); assay type: functional, Streptococcus pyogenes M1 GAS;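 also: secreted streptokinase activity via plasminogen activation per viability signal from cell pellet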
T3 sequence (P10520 whole entry): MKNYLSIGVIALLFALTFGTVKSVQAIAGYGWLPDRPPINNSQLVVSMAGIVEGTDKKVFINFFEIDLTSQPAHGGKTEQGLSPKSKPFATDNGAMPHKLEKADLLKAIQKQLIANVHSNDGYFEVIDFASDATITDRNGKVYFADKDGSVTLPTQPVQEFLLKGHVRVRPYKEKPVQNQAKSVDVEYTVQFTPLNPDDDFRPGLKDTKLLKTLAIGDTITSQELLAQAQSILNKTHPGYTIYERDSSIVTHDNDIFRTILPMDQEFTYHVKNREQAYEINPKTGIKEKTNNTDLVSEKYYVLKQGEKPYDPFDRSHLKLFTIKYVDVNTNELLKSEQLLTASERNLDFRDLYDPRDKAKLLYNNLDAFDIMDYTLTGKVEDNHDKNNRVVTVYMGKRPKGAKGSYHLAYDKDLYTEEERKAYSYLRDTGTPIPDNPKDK

[8] = Luminescence Cell-Based Dose Retest to Confirm Inhibitors of Cancer Stem Cells. [Related pubchem assays (depositor defined):AID2717, AID2721]; assay type: functional; details: Homo sapiens
[9] = tested on: Streptococcus sp. 'group A'; experiment: Streptococcus pyogenes SK(-)GAS viability under kanamycin – luminescence, BacTiterGlo, confirmation, counter-screen for streptokinase expression inhibitor project, dose response (AID 1900); assay type: functional, organism-based
[10] = Trypanosoma cruzi growth suppression in host cells – NIH3T3 host cells, beta-gal luminescence, confirmation (AID 2044); assay type: functional, cell-based;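 also: intracellular parasites grown in NIH/3T3 mouse fibroblasts as host cells; luminescent beta-galactosidase reporter signal from transgenic T. cruzi replicating inside host cells; inhibitors lower the luminescence signal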
[11] = NIH3T3 cell viability loss – ATP luminescence, mouse fibroblasts, counter-screen, dose response (AID 2010); assay type: functional, cell-based;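 also: cells exposed to compound for about 90 hours before reading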
[12] = NIH-3T3 fibroblast cytotoxicity, dose response, cytotoxicity control, cell-based, fluorescence, Alamar Blue, secondary assay (AID 2327); assay type: functional;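 also: NIH-3T3 mouse fibroblasts cultured with fluconazole at 8 µg/mL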
[13] = fluconazole-exposed Candida albicans growth modulators – fluorescence, retest, confirmation (AID 2467); assay type: functional, cell-based
[14] = target: Cytochrome P450 2C9 (Homo sapiens, UniProt P11712)
[15] = Luminescence Cell-Based Dose Response HTS to Identify Inhibitors of 5'UTR Stem-Loop Driven Prion Protein mRNA Translation in H4 Neuroglioblastoma Cells. [Related pubchem assays: 1827 (Project Summary), 1813 (Primary HTS)]; assay type: functional
[16] = alpha-synuclein stem-loop luciferase translation blockers – H4 neuroglioma cells, luminescence, confirmation (AID 1988); assay type: functional, cell-based
[17] = luciferase reporter signal suppression in cells – H4 neuroglioma cells, luminescence, dose response (AID 1990); assay type: functional, cell-based

Sequence of Cytochrome P450 2D6 (P10635 whole entry): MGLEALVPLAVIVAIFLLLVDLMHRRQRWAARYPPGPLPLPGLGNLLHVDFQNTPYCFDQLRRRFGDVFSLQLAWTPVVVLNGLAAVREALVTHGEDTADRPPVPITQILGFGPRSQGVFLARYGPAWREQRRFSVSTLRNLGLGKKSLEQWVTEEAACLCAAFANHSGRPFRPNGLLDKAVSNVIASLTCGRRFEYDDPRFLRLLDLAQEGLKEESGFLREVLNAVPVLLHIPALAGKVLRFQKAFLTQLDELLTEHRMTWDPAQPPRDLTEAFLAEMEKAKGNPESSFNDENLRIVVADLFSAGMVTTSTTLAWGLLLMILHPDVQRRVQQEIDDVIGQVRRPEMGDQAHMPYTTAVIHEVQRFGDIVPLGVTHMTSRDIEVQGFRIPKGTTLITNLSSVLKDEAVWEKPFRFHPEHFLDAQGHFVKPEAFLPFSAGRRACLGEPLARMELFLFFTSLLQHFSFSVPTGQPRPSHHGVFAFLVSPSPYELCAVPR
Sequence of Cytochrome P450 2C9 (P11712 whole entry): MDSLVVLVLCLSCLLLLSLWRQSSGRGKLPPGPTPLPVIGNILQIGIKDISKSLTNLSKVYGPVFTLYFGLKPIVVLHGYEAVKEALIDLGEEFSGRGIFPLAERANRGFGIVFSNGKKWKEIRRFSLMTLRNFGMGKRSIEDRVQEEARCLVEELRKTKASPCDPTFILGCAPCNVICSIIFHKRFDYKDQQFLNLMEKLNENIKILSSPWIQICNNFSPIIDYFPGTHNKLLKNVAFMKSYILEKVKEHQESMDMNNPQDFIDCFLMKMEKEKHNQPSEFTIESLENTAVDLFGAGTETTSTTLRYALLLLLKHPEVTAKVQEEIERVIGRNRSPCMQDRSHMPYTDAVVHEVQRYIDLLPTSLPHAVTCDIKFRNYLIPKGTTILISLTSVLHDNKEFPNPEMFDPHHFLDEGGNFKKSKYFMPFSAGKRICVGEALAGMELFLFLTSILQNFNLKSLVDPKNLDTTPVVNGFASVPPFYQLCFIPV
Sequence of Cytochrome P450 3A4 (P08684 whole entry): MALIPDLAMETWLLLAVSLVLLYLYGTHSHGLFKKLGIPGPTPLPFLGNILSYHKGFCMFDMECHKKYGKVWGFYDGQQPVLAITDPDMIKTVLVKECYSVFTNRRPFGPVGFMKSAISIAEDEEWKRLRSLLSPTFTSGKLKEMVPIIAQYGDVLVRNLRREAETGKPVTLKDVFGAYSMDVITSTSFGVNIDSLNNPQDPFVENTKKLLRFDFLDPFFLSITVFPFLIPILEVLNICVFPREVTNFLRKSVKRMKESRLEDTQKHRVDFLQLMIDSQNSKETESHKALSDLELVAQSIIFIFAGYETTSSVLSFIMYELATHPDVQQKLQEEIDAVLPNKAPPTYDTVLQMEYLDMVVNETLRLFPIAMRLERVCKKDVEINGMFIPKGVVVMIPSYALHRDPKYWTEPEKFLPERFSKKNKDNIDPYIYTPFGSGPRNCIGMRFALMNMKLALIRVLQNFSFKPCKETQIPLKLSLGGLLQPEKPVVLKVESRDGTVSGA

In the case of Cc1c(/C=C2\SC(=O)N(CC(=O)Nc3ccc4c(c3)OCO4)C2=O)c2ccccc2n1C, the AC50 [1] is reported as 2.82 µM (inconclusive), the AC50 [2] is reported as 3.16 µM (inconclusive) and the AC50 [3] is reported as 0.2 µM (inconclusive).

For c1cc(-c2sc(-c3ccncc3)c(-c3ccncc3)c2-c2ccncc2)ccn1, the AC50 [1] was 3.16 µM (inconclusive) and the AC50 [2] was 3.16 µM (inconclusive).

In the case of CCOC(=O)C1CCN(c2cc3c(cc2NC(=O)c2cc(OC)ccc2Br)n(C)c(=O)n3C)CC1, the EC50 [4] is reported as > 53 µM (inactive) and the IC50 [5] is reported as > 47.1 µM (inactive).

For c1ccc(N(c2ccccc2)c2nc(N3CCCC3)nc(-n3ccnc3)n2)cc1, the EC50 [6] was 5.49 µM (active), the EC50 [7] was > 150 µM (not active) and the AC50 [8] was 5.16 µM (active). The EC50 [9] was 5.55 µM (active), the EC50 [10] was 1.84 µM (active) and the EC50 [11] was > 60 µM (not active).

For CCOc1ccc(/C=N/NC(=O)C(C)N(c2ccc(OC)cc2)S(C)(=O)=O)cc1OCC (centres undefined), the EC50 [4] was > 53 µM (inactive) and the IC50 [5] was > 47.1 µM (inactive).

In the case of CCOc1ccccc1NC(=O)COC(=O)C1COc2ccccc2O1 (centres undefined), the EC50 [4] is reported as > 53 µM (inactive) and the IC50 [5] is reported as > 47.1 µM (inactive).

For O=C1NC(Cc2c[nH]c3ccccc23)C(=O)N1Cc1cccc2ccccc12 (centres undefined), the EC50 [4] was > 53 µM (inactive) and the IC50 [5] was > 47.1 µM (inactive).

In the case of COc1ccc(C(=O)NCC2(c3ccccc3)CCCC2)c(OC)c1, the AC50 [8] is reported as 1.22 µM (active).

With COc1cccc(C(=O)/C=C/c2ccc(N3CCCCC3)c([N+](=O)[O-])c2)c1 the AC50 [8] was 7.86 µM (active).

With COC(=O)c1ccc(CSc2nc3cc(Cl)ccc3s2)o1 the AC50 [1] was 20 µM (inconclusive) and the AC50 [3] was 25.1 µM (inconclusive).

In the case of CCOC(=O)C1CCN(CCC(=O)Nc2ccc(F)cc2)CC1, the EC50 [12] is reported as > 150 µM (inactive) and the EC50 [13] is reported as 5.18 µM (active).

With O=C1C(Cl)=C(Sc2nnc3c4ccccc4c4ccccc4c3n2)C(=O)c2ccccc21 the AC50 [1] was 3.98 µM (inconclusive), the AC50 [14] was 3.98 µM (inconclusive) and the AC50 [3] was 5.01 µM (inconclusive).

In the case of COc1ccccc1-c1nccc(NCc2cccnc2)n1, the AC50 [1] is reported as 20 µM (inconclusive).

With COc1ccccc1N1CCN(Cc2cc(=O)n3ccsc3n2)CC1 the AC50 [1] was 22.4 µM (inconclusive).

For CCNc1nc(NCC)n2c(SCc3ccc(F)cc3)nnc2n1, the EC50 [4] was > 53 µM (inactive) and the IC50 [5] was > 47.1 µM (inactive).

With COC(=O)N1CCC2(CCCN(Cc3nccs3)C2)CC1 the AC50 [1] was 12.6 µM (inconclusive) and the AC50 [3] was 15.8 µM (inconclusive).

In the case of COc1cccc(OC)c1C(=O)NC(=S)N1CCN(c2ccc(C(F)(F)F)cc2[N+](=O)[O-])CC1, the AC50 [1] is reported as 20 µM (inconclusive).

For COc1ccc(/C=N/NC(=S)Nc2ccccc2[N+](=O)[O-])cc1O, the AC50 [8] was 4.87 µM (active).

For O=C(NC1CCCCC1)C1CCN(C(=O)c2ccc(-c3ccccc3)cc2)CC1, the EC50 [15] was > 120 µM (not active), the EC50 [16] was 77.5 µM (active) and the EC50 [17] was > 120 µM (not active).

With Clc1ccc(Sc2ccc(/C=N/n3cnnc3)o2)cc1 the AC50 [1] was 15.8 µM (inconclusive).

With Cc1ccc(C(=O)NC(=C(Cl)Cl)S(=O)(=O)c2ccccc2)cc1 the AC50 [8] was 3.29 µM (active).

With OCCCn1c(CCNc2nc(-c3ccc(Cl)cc3)cs2)nc2cc(C(F)(F)F)ccc21 the AC50 [8] was 23.9 µM (active).

In the case of CC[C@H](NC(C)C)[C@H](O)c1ccc(O)c2[nH]c(=O)ccc12 [PROCATEROL], the AC50 [1] is reported as 31.6 µM (inconclusive) and the AC50 [2] is reported as 39.8 µM (inconclusive).

For CCOC(=O)c1ccc(NC(=O)c2ccc(CO)c(C(=O)NC3CCN(C(=O)OCC)CC3)c2)cc1, the EC50 [12] was > 160 µM (inactive) and the EC50 [13] was > 38 µM (not active).

For CCCCn1c(CN2CCN(C(=O)OCC)CC2)nc2c1c(=O)n(C)c(=O)n2C, the EC50 [12] was > 150 µM (inactive) and the EC50 [13] was > 38 µM (not active).

In the case of CCCCCCCCCC(=O)NNC(=O)c1c(O)c2ccccc2n(CC)c1=O, the EC50 [12] is reported as > 160 µM (inactive) and the EC50 [13] is reported as > 38 µM (not active).

In the case of CC(C)CNc1nc(N)c([N+](=O)[O-])c(NCC2CCCO2)n1 (centres undefined), the EC50 [15] is reported as 4.6 µM (active), the EC50 [16] is reported as > 120 µM (not active) and the EC50 [17] is reported as 13.5 µM (active).

In the case of COC(=O)c1sccc1NS(=O)(=O)c1ccccc1, the EC50 [4] is reported as > 53 µM (inactive) and the IC50 [5] is reported as > 47.1 µM (inactive).

For COc1cc(OC)cc(C(=O)NNC(=O)Cc2ccc(OC)c(S(=O)(=O)N3CCOCC3)c2)c1, the EC50 [12] was > 150 µM (inconclusive) and the EC50 [13] was > 38 µM (not active).

In the case of CCC(c1nnnn1CCc1ccccc1)N(Cc1ccco1)Cc1cc2c(C)ccc(C)c2nc1O (centres undefined), the EC50 [15] is reported as > 120 µM (not active), the EC50 [16] is reported as > 120 µM (not active) and the EC50 [17] is reported as > 120 µM (not active). The EC50 [10] was 1.41 µM (active) and the EC50 [11] was > 60 µM (not active).

With Cc1nc2ccc(NC(=O)COc3ccccc3)cc2s1 the EC50 [12] was > 150 µM (inactive) and the EC50 [13] was > 38 µM (not active).

With O=C(O)CN1CCN(Cc2ccccc2)C1=O the AC50 [1] was 15.8 µM (inconclusive) and the AC50 [14] was 11.2 µM (inconclusive).

In the case of COc1ccc(S(=O)(=O)Nc2nc3ccccc3nc2NCC2CCCO2)cc1 (centres undefined), the EC50 [4] is reported as > 53 µM (inactive) and the IC50 [5] is reported as > 47.1 µM (inactive).

In the case of CS(=O)(=O)Nc1ccc(Nc2c3ccccc3nc3ccccc23)cc1, the AC50 [1] is reported as 3.16 µM (inconclusive) and the AC50 [14] is reported as 6.31 µM (inconclusive).

With O=S(=O)(Nc1ccc2c(c1)CCC2)c1cccs1 the EC50 [4] was > 53 µM (inactive) and the IC50 [5] was > 47.1 µM (inactive).

With Cc1cc(C)n2nc(-c3sccc3-n3cccc3)cc2n1 the AC50 [1] was 35.5 µM (inconclusive) and the AC50 [3] was 3.55 µM (inconclusive).

In the case of CC/C(NCc1cc(OC)cc(OC)c1)=C1/C(=O)NC(=O)N(C2CCCCC2)C1=O, the EC50 [15] is reported as > 120 µM (not active), the EC50 [16] is reported as 27.2 µM (active) and the EC50 [17] is reported as 16 µM (active).

For C=C1C(C(=O)Nc2ccccc2)C1C(=O)Nc1ccccc1 (centres undefined), the EC50 [4] was > 53 µM (inactive) and the IC50 [5] was > 47.1 µM (inactive).

Reference: ChEMBL document CHEMBL1201862, “PubChem BioAssay data set” (2004)
